Measurements: ChEMBL document CHEMBL3507680, “University of Dundee, Gates Library screen for HepG2 cell viability”

Assay: Human HepG2 cell viability assay in 384 well format
Assay type: toxicity, cell-based
Design: dose 125 nL, time 70.5 hour; cytotoxicity at 70.5 h: concentration not given beside the values
Settings: HepG2 cells, read-out: Inhibition

SMILES | cytotoxicity at 70.5 h
Cc1n[nH]c2c1C(c1cccnc1)SCC(=O)N2 (configuration not stated) | -13.5%
O=C(CNC(=O)N1CCN(c2cccc(Cl)c2)CC1)Nc1ccccn1 | -9.74%
COc1ccc(CNc2c(N3CCN(C)CC3)c(=O)c2=O)cc1 | -8.39%
Cc1c(OCC(=O)NCc2ccccc2Cl)c(=O)ccn1C | -23.2%
CC(C)(C)n1ncc2c1NC(=O)CSC2c1ccc2c(c1)OCCO2 (configuration not stated) | -13%
CC1CC(=O)c2cc(C(=O)N3CCc4ccccc43)c(=O)[nH]c2C1 (configuration not stated) | -1.11%
C[C@@H](O)CNC(=O)c1nc(Cc2c(Cl)cccc2Cl)no1 | -8.72%
CC(C)CCNC(=O)c1csc(NC2CC2)n1 | -9.92%
CCOC(=O)Cc1csc(NC(=O)c2cc(=O)c(OC)c[nH]2)n1 | 2.05%
CC(=O)c1cn(CCC(=O)Nc2c3c(nn2C)CSC3)c2ccccc12 | 14.7%
COCc1nnc(NC(=O)CN2C(=O)c3ccccc3NC2C(C)C)s1 (configuration not stated) | -12.3%
O=c1c(NCc2ccco2)c(NCC(O)CN2CCOCC2)c1=O (configuration not stated) | -6.2%
O=c1c(NCCc2ccc(O)cc2)c(NCc2ccncc2)c1=O | -0.102%
CNc1c(NCc2ccco2)c(=O)c1=O | -12.4%
CC(C)CNC(=O)CNc1c(NCc2ccncc2)c(=O)c1=O | 4.58%
O=c1c(NCCOCCO)c(N2CCN(c3ccccc3)CC2)c1=O | -2.63%
COCCn1ccc(=O)c(OCC(=O)Nc2cccc(Cl)c2)c1C | -8.65%
COc1c[nH]c(C(=O)N2CCN(c3cccc(Cl)c3)CC2)cc1=O | -8.19%
COc1ccc(N2CCN(C(=O)c3cc(=O)c(OC)c[nH]3)CC2)cc1 | -6.09%
Cc1nn(C)cc1C1CC(=O)Nc2c1cnn2C(C)C (configuration not stated) | -10.7%
Cc1c(C2CC(=O)Nc3c2cnn3C(C)C)cnn1C (configuration not stated) | -10.4%
CN1CCN(CC(CC(=O)Nc2ccc(Cl)cc2)C(=O)O)CC1 (configuration not stated) | -5.4%
CN(Cc1ccccc1)C(=O)Cn1nc(N2CCSCC2)ccc1=O | -6.57%
Cc1cc(NCCO)nc2[nH]nc(N)c12 | -14.9%

SMILES | cytotoxicity at 70.5 h
COc1ccc(CNC(=O)CCCc2nnc3ccc(OC)nn23)cc1 | -14.6%
Cn1ccc2c(NC(=O)Cn3ncc4c(c3=O)CCCCC4)cccc21 | 3.29%
CC(C)Nc1oc(-c2ccc(S(=O)(=O)N(C)C)o2)nc1C#N | -8.63%
Cc1nn2cnnc2c(C)c1CCC(=O)Nc1nnc(C2CC2)s1 | -10.7%
CC1=Nc2c(c(=O)[nH]n2C2CCCC2)C(c2ccc(O)cc2)S1 (configuration not stated) | -22.9%
COc1ccc(C2SC(C)=Nc3c2c(=O)[nH]n3C2CCCC2)cc1O (configuration not stated) | -18.9%
Cn1ccc2c(NC(=O)Cn3ncc4c(c3=O)CCCC4)cccc21 | 6.85%
Cc1ccc2c(C(=O)N(C)C)cc(-c3cnn(CCO)c3)nc2c1C | -3.4%
CCOCCC(=O)N1CCCC(CO)(CC2CC2)C1 (configuration not stated) | -11%
Cc1ccc2[nH]c(=O)cc(C(=O)NCCCn3nccc3C3CC3)c2c1 | -16%
COC[C@]1(O)CCN(c2cc(N3CCOCC3)ncn2)CC1(C)C | -9.52%
O[C@H]1[C@H](n2cc(CN3CCCC3)nn2)c2ccccc2C12CCNCC2 | -7.31%
COc1ccccc1C(=O)Nc1ccc(OC2CCN(C)CC2)cc1 | -6.64%
O=c1[nH]c(NC2CCCC2)nc2nccc(-c3ccco3)c12 | -8.71%
CCCc1nc(C(=O)N[C@H]2COC[C@@H]2N2CCN(C)CC2)cs1 | -7.8%
CN1CC(c2n[nH]c(=O)n2-c2cccc(Cl)c2)CC1=O (configuration not stated) | -12.8%
Cc1cc(C)cc(S(=O)(=O)NCC2CNCCOC2)c1 (configuration not stated) | -1.55%
O=C(O)CSc1nnc(-c2cn[nH]c2)n1-c1ccccc1Cl | 17.6%
CC(=O)NCCOc1cccc(Br)c1 | 2.45%
COC(=O)c1cc2c(=O)[nH]c(=O)n(CCc3ccccc3)c2nc1C | 4.39%
CCC(Oc1ccc(N(C)S(C)(=O)=O)cc1)C(=O)NC (configuration not stated) | -1.39%
CSc1nccc(N2C[C@@H](CN3CCCCC3)[C@@H](CO)C2)n1 | 27.1%
Cc1cccc(C2CC(=O)Nc3c2c(=O)[nH]n3C(C)C)c1 (configuration not stated) | -11.1%
O=C(NCCNc1cc(N2CCCC2)ncn1)c1cnccn1 | -7.66%

SMILES | cytotoxicity at 70.5 h
CCC(=O)NC(C)c1ccccc1C (configuration not stated) | 0.0127%
C[C@@H]1CN(CCC(=O)N(C)Cc2ccccc2)CC[C@@]1(O)C1CCC1 | 21.4%
CS(=O)(=O)N1CCN(c2ccnc(N3CCCCC3)n2)CC1 | -6.15%
Cc1nc2nc(C)c3c(=O)n(-c4ccn[nH]4)ccc3n2n1 | 10.9%
NC(=O)c1ccc(OCCCN2CCC3(CC2)OCCCC3O)cc1 (configuration not stated) | -1.53%
CCC(C)c1ccc(NC(=O)C2CCN(C(=O)N(C)C)CC2)cc1 (configuration not stated) | -4.2%
Cc1onc(N)c1S(=O)(=O)N1CCCCC1C (configuration not stated) | -2.67%
Cc1cccnc1CN(C)C(C(=O)O)c1ccc(-n2cccn2)cc1 (configuration not stated) | -2.91%
Nc1ccc(C(=O)N2CCCC(C(=O)CCc3ccccc3)C2)cn1 (configuration not stated) | -20%
CC(C)(C)c1cn(CC2CCCN(c3cnc4ccccc4n3)C2)nn1 (configuration not stated) | 0.262%
COCc1nc2ncc3c(=O)n(-c4ccccc4OC)ccc3n2n1 | -5.8%
COc1ncc(CN(CCN(C)C)Cc2ccc(C)s2)cn1 | 12.8%
Cc1nc2ncnn2c2ccn(-c3cccnc3O)c(=O)c12 | -15.9%
CC(C)c1nc(CN(C)Cc2ncccc2C(=O)O)cs1 | 4.17%
COCCN(Cc1ccncc1)C(=O)C1COc2c(cccc2OC)C1 (configuration not stated) | 0.81%
CCc1ccc(C2CC(=O)Nc3c2c(=O)[nH]n3C(C)C)cc1 (configuration not stated) | 0.136%
Cc1cnc(N2CCCC(O)C2)nc1-c1ccnn1C (configuration not stated) | 10.8%
O=C(Cc1ccc(F)cc1)NCCNc1cc(N2CCCC2)ncn1 | 22.2%
Cc1ccc(-c2cc(-c3nc(CN4CCN(C)CC4)no3)n[nH]2)cc1 | 22.4%
Cc1nc(C2CCCN(C(=O)c3ccnc(N(C)C)c3)C2)no1 (configuration not stated) | -3.61%
Cc1cn2c(n1)CCC(NC(=O)Cn1cncn1)C2 (configuration not stated) | -5.67%
Cc1nnc2n1CCN(C(=O)CN(C)Cc1ccccc1)C2 | 19.2%
NS(=O)(=O)c1ccc(C(=O)N2CCCC2c2ccccc2)o1 (configuration not stated) | -3.63%
O=C(CS(=O)(=O)Cc1cc(Cl)c2c(c1)OCO2)N1CCCC1 | -0.922%

SMILES | cytotoxicity at 70.5 h
COCCOc1cccc(CNC(=O)CN2CCN(C)CC2C)c1 (configuration not stated) | 10.3%
CC(C)OCCN1CCN(C(C)c2nc(C3CC3)no2)CC1 (configuration not stated) | 17.9%
CC(=O)N(C)CCCc1cc(-c2ccccc2)no1 | -4.09%
CC1CN(Cc2cc(C#N)ccc2F)CCN1Cc1nccn1C (configuration not stated) | -3.5%
CCN1CCOC(CNCc2ccc(OCc3ccccn3)cc2)C1 (configuration not stated) | -6.17%
CCOc1ncccc1NC(=O)N1CCCC(CNC(N)=O)C1 (configuration not stated) | -8.62%
CCOc1ncccc1NC(=O)N1CCC(CN2CCOCC2)CC1 | -3.11%
Cc1ccc(C(C)N(C)Cc2nc3c(cnn3C)c(=O)[nH]2)s1 (configuration not stated) | -8.32%
O=C(Nc1cccc(CNCc2ccccn2)c1)C1CCCC1 | -4.03%
CC(c1ccccc1Cl)N(C)Cc1nc2c(cnn2C)c(=O)[nH]1 (configuration not stated) | -2.36%
CN(CC(=O)N1CCC(COc2ccccc2)CC1)c1cnccn1 | -0.223%
CC(C(=O)NC(N)=O)N(C)CCCc1cc(-c2ccccc2)no1 (configuration not stated) | -3.63%
CCc1ccc(S(=O)(=O)Nc2ccc(F)cc2C(=O)O)s1 | 5.89%
CC1CN(C)CCN1CC(=O)NCCOc1ccc(Cl)cc1 (configuration not stated) | 11.2%
Clc1cc(CN2CCCCC2Cn2cncn2)c2ncccc2c1 (configuration not stated) | -9.86%
CC(C)Oc1ccc(CNC(=O)CN(C)S(C)(=O)=O)cc1F | -6.43%
CC(C)Oc1ccc(CNC(=O)CCN2C(=O)CCC2=O)cc1F | -3.49%
CCN1CCOC(CNCc2ccccc2OCc2cccnc2)C1 (configuration not stated) | 0.0939%
CC(C)Oc1ccc(CNC(=O)NCc2ccncc2)cc1F | -10.8%
CSCC(=O)N1CCCC(c2cc(C)[nH]n2)C1 (configuration not stated) | -12%
CNc1nc(CNC(=O)Nc2ccc(SC)c(F)c2)cs1 | -1.49%
CNc1nc(CNC(=O)Nc2cccc(-n3ccc(C)n3)c2)cs1 | 0.812%
O=C(NCCNc1ccccn1)N1CCC(O)CC1 | 3.99%
CC(NC(=O)NCCCn1cncn1)c1ccc(C#N)cc1 (configuration not stated) | 1.25%

SMILES | cytotoxicity at 70.5 h
Cc1ccc(C(=O)NCCSCc2cccs2)cn1 | 12.6%
CN(Cc1cnn(C)c1)C(=O)NCCc1ccc2c(c1)OCO2 | -1.01%
Cc1ccc(CNC(=O)N(C)Cc2cnn(C)c2)s1 | -1.07%
CCN(Cc1ccc2c(c1)OCCO2)C(=O)NCCc1cnn(C)c1 | 0.223%
NC(=O)C1CCN(C(=O)NCCNc2ccccn2)CC1 | -1.19%
CCc1nc(CN2CCN(C(=O)c3csnn3)CC2)cs1 | -0.125%
Cc1cnn(CCNCc2cc(C#N)ccc2F)c1 | 18.7%
Cc1cc(NC(=O)CN2CCN(c3nc(C)cs3)C(C)C2)on1 (configuration not stated) | -1.59%
Cc1nn(C)c(C)c1C1CCCN1C(=O)c1ccc(N(C)C)nc1 (configuration not stated) | -0.439%
CCCN(C)S(=O)(=O)N1CCCC1c1ccco1 (configuration not stated) | 1.45%
CN(Cc1cnccn1)S(=O)(=O)N1CCCC1c1ccco1 (configuration not stated) | 1.01%
Cn1cccc1C1CCCCCN1C(=O)c1ccc(NC2CC2)nc1 (configuration not stated) | 12.8%
Cc1cnn(CCNCc2cccc(C#N)c2)c1 | 4.17%
Cc1cnn(CCNCc2ccc(C#N)cc2)c1 | -1.47%
N#Cc1ccc(CNCCn2cccn2)c(F)c1 | 13.7%
Cc1csc(N2CCN(CC(=O)NCc3ccccn3)CC2C)n1 (configuration not stated) | -13.9%
Cc1nc(CN2CCCN(C(=O)c3cnccn3)CC2)cs1 | -3.13%
Cc1nc(CN2CCCC2c2noc(C3CC3)n2)nc2ccccc12 (configuration not stated) | 43.5%
Cc1cc(C)n(CC2CCCN2C(=O)c2cncnc2C)n1 (configuration not stated) | 1.29%
Cn1ccnc1C(NCc1ccc(Br)cc1)c1ccccc1 (configuration not stated) | -0.0759%
Cc1ccc(CNC(c2ccccc2)c2nccn2C)cc1 (configuration not stated) | 22.4%
